Experimental data taken from article PMC3050713 (Cancer chemotherapy and pharmacology, 2008).
Where a name gives a salt, the structure may show the parent alone. Read-outs that look alike come from different tables or passages of the source.

Key:
[1] = Doxorubicin pharmacokinetics in plasma; settings: mean
[2] = cited from earlier work
[3] = Phase 1 dose escalation: toxicity, DLT and MTD of Triapine with doxorubicin; format: in vivo, human
clinical = settings: human
A2780 ovarian tumors = settings: twice daily intra-peritoneal for 5-6 days at 8-10 mg/kg/dose; cited from earlier work
[4] = Triapine pharmacokinetics in plasma and erythrocytes; format: in vivo, human; settings: for Tmax: 45 mg/m2, Tmax, Triapine 25 or 45 mg/m2, cycle 1 day 1
[5] = test system: Madison 109 (M109) lung tumors; settings: twice daily intra-peritoneal for 5-6 days at 8-10 mg/kg/dose; cited from earlier work
[6] = cited from earlier work; remark: listed apart in the source
L1210 leukemia = settings: murine models; cited from earlier work
[7] = human, erythrocytes, intravenous
[8] = 2 hour IV infusions for 5 days of every 28 day cycle

COc1cccc2c1C(=O)c1c(O)c3c(c(O)c1C2=O)C[C@@](O)(C(=O)CO)C[C@@H]3O[C@H]1C[C@H](N)[C@H](O)[C@H](C)O1 [doxorubicin, Doxorubicin hydrochloride]
Cl [1]: 252 mL/min/m^2 | Vss [1]: 219 L/m^2 | incidence of CHF ([2]; cumulative dose 450 mg/m^2): 4% | incidence of CHF ([2]; cumulative dose up to 300 mg/m^2): 1% | patients with leucopenia ([2]; doxorubicin 60 mg/m^2 every 21 days): approximately 75% | recommended phase II combination dose ([3]; doxorubicin IV bolus on day 1 immediately following Triapine): 60 mg/m^2 | half-life (clinical; in vivo, iv): 10.1 h | Tmax (clinical; plasma, intravenous): 0.2 h

NC(=S)NN=Cc1ncccc1N [Triapine, 3-aminopyridine-2-carboxaldehyde thiosemicarbazone]
effect on tumors (A2780 ovarian tumors): effective | Cmax ([4]; erythrocytes, dose adjusted, mean): 710 ng/mL | Cl ([4]; erythrocytes, mean): 0.34 mL/min/m^2 | Vss ([4]; erythrocytes, mean): 83 L/m^2 | AUC(0-inf) [4, 7]: 1450 ng·h/mL | Cmax [4, 7]: 710 ± 180 ng/mL | half-life ([4]; human, erythrocytes, intravenous, 45 mg/m2): 4.2 h | Tmax ([4]; human, erythrocytes, intravenous, erythrocytes, mean): 0.04 h | AUC(0-inf) ([4]; human, plasma, intravenous): 1210 ng·h/mL | Cmax ([4]; human, plasma, intravenous): 650 ± 180 ng/mL | Tmax ([4]; human, plasma, intravenous, plasma, mean): 0.22 ± 0.11 h | half-life ([4]; human, plasma, iv): 5.3 h | Cmax ([4]; plasma, dose adjusted, mean): 650 ng/mL | Cl ([4]; plasma, mean): 0.38 mL/min/m^2 | Vss ([4]; plasma, mean): 107 L/m^2 | effect on tumors [5]: effective | recommended phase II combination dose ([3]; Triapine 2 hour infusion on days 1-4): 25 mg/m^2 | major DLT ([6]; 2-hour infusion daily x 5 schedule): transient neutropenia | patients with grade 2 anemia [6, 8]: 73% | patients with grade 3 anemia [6, 8]: 22% | patients with grade 3 or 4 thrombocytopenia [6, 8]: 22% | patients with grade 4 leucopenia in at least one course [6, 8]: 93% | single-agent MTD [6, 8]: 96 mg/m^2 | toxicities associated with the infusion ([6]; 2 hour infusion of ≥ 140 mg/m^2): reversible hypotension, hypoxia, dyspnea, cough, and EKG changes including ST-T wave changes and prolongation of the QT interval | DLTs ([6]; single 2-hour IV infusion every 4 weeks, doses up to 105 mg/m^2): no DLTs were observed | anti-tumor activity ([6]; single 2-hour IV infusion every 4 weeks): no anti-tumor activity was observed | recommended phase II dose ([6]; single agent, daily for 4 days): 96 mg/m2 | anti-tumor activity (L1210 leukemia): displayed anti-tumor activity
